This note sets out measurements from US9994587B2, “HIV protease inhibitors” (priority 2014, dated 2018).

Each structure is given as a SMILES string.

The first assay has as its target T1, wildtype HIV-1 protease (Human immunodeficiency virus type 1 group M subtype B, UniProt P04585).
T1 construct: preincubated with the HIV-1 protease (wild type) enzyme in assay buffer; made in house; host or cells: Escherichia coli
Put plainly: Assay for inhibition of microbial expressed HIV protease (Pepcleav). Type of assay: biochemical. Particulars: wild type HIV-1 protease 20 pM, peptide substrate 400 micromolar, pH 5.5; mean of at least two independent experiments. In short, it runs like this: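 E. coli-expressed enzyme preincubated with inhibitor 30 min at room temperature in 50 mM sodium acetate pH 5.5, 100 mM NaCl, 0.1% BSA, then 400 micromolar peptide substrate added with 20 picomolar protease (final), 1 h at 30° C. Product quantified by LC-MS/MS peak area after formic acid/indinavir quench.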
For the compound `N[C@H](C(=O)Nc1cncc(F)c1CC[C@@H]1CNC[C@@H](COC(=O)NCc2ccc(F)cc2)O1)C(c1ccc(F)cc1)c1ccc(F)cc1` [Example 125, 4-fluoro-N-(5-fluoro-4-{2-[(2R,6S)-6-({[(4-fluorobenzyl)carbamoyl]oxy}methyl)morpholin-2-yl]ethyl}pyridin-3-yl)-β-(4-fluorophenyl)-L-phenylalaninamide], the IC50 (commonly the concentration that gives 50% inhibition) amounted to 15 nM.

Turning to `N[C@H](C(=O)Nc1cncc(F)c1CC[C@@H]1CNC[C@@H](COC(=O)NCCc2ccccc2)O1)C(c1ccc(F)cc1)c1ccc(F)cc1` [Example 130, 4-fluoro-β-(4-fluorophenyl)-N-(5-fluoro-4-{2-[(2R,6S)-6-({[(2-phenylethyl)carbamoyl]oxy}methyl)morpholin-2-yl]ethyl}pyridin-3-yl)-L-phenylalaninamide], the IC50 came out at 8.8 nM. This IC50 is about 1.7-fold lower than that of the compound before.

Compound `N[C@H](C(=O)Nc1cncc(F)c1CC[C@@H]1CNCC2(CCCC2)O1)C(c1ccccc1)c1ccccc1` [Example 131, N-(5-fluoro-4-{2-[(7R)-6-oxa-9-azaspiro[4.5]dec-7-yl]ethyl}pyridin-3-yl)-β-phenyl-L-phenylalaninamide] had an IC50 of 300 nM. This IC50 lies about 34-fold higher than the previous one.

On to `CC(C)COC[C@@H]1CNC[C@@H](CCc2c(F)cncc2NC(=O)[C@@H](N)C(c2ccc(F)cc2)c2ccc(F)cc2)O1` [Example 132, 4-fluoro-N-[5-fluoro-4-(2-{(2R,6S)-6-[(2-methylpropoxy)methyl]morpholin-2-yl}ethyl)pyridin-3-yl]-β-(4-fluorophenyl)-L-phenylalaninamide], for which the IC50 was 430 nM.

Compound `N[C@H](C(=O)Nc1cncc(F)c1CC[C@@H]1CNCC2(CCCCC2)O1)C(c1ccccc1)c1ccccc1` [Example 133, N-(5-fluoro-4-{2-[(2R)-1-oxa-4-azaspiro[5.5]undec-2-yl]ethyl}pyridin-3-yl)-β-phenyl-L-phenylalaninamide] showed an IC50 of 290 nM.

The next assay relates to HIV-1 (NL4-3 strain). Put plainly: Viral Kinetics GFP Reporter (ViKinG) assay. Type of assay: cell-based. Conditions: Human immunodeficiency virus 1, NL43; 50% NHS; MT4-GFP cells infected with HIV-1 NL4-3; mean of at least two independent experiments. The source says:
Viral Kinetics GFP Reporter (ViKinG) Assay
The ViKinG assay is an in vitro kinetic assay that employs the MT4-gag-GFP reporter cell line (Wang et al., “Assessment of the susceptibility of mutant HIV-1 to antiviral agents.” J Virological Methods 165:230-37 (2010)) to quantify the number of new cells infected in each round of replication. The purpose of the ViKinG assay is to identify agents that inhibit HIV progression. Briefly, HIV infection results in tat transactivation of the stably expressed HIV LTR promoter to drive gagGFP expression. Thus, an increase in the number of GFP-MT4 cells results following HIV infection.
MT4-GFP cells (250,000 cells/ml) were bulk-infected with HIV-1 (NL4-3 strain) at low multiplicity of infection (MOI) in RPMI+10% FBS for 24 hours. Cells were then washed once in RPMI+10% FBS and resuspended RPMI+10% or 50% normal human serum (NHS). Test compounds were serial-diluted in DMSO on an ECHO® liquid handling platform (Labcyte Corp., Sunnyvale, Calif.), along with a triple drug control (integrase, protease and NNRTI compounds). The infected MT4-GFP cells were added to a 384-well poly-D-lysine coated black plate with clear bottom in which the diluted test compounds were placed. The cells were seeded at 8,000 cells per well and the final DMSO concentration was 0.4%. The infected cells (Green GFP cells) were quantified at both 24 and 48 hours post incubation using Acumen® eX3 (TTP Labtech Ltd., Hertfordshire, United Kingdom). Viral reproductive ratio (R0) was determined using the number of infected cells at 48 hours divided by the number of infected cells at 24 hours. Percent viral growth inhibition was calculated by [1−(R−Rtripledrug)/(RDMSO−Rtripledrug)]*100. Compound potency IP or IC50 was determined by a 4-parameter dose response curve analysis.
On to `COC(=O)N[C@H](C(=O)Nc1cccc(F)c1CC[C@@H]1CNCC2(CCCC(=O)C2)O1)[C@@H](c1ccc(F)cc1)c1cc(F)cc(F)c1` (stereo partly drawn) [Example 92, Methyl ((1S,2S)-1-(3,5-difluorophenyl)-3-((3-fluoro-2-(2-((2R)-8-oxo-1-oxa-4-azaspiro[5.5]undecan-2-yl)ethyl)phenyl)amino)-1-(4-fluorophenyl)-3-oxopropan-2-yl)carbamate], for which half-maximal inhibition (IC50) required 35 nM.

The compound `CC(=O)N1CCC2(CC1)CNC[C@@H](CCc1c(F)cccc1NC(=O)[C@@H](N)[C@@H](c1ccc(Cl)cc1)c1cc(F)cc(F)c1)O2` [Example 95, (2S,3S)—N-(2-(2-((R)-9-Acetyl-1-oxa-4,9-diazaspiro[5.5]undecan-2-yl)ethyl)-3-fluorophenyl)-2-amino-3-(4-chlorophenyl)-3-(3,5-difluorophenyl)propanamide] gave an IC50 of 150 nM.

As to `N[C@H](C(=O)Nc1cccc(F)c1CC[C@@H]1CNCC2(CCOCC2)O1)[C@@H](c1ccc(Cl)cc1)c1cc(F)cc(F)c1` [Example 96, (βS)-4-chloro-β-(3,5-difluorophenyl)-N-(2-{2-[(2R)-1,9-dioxa-4-azaspiro[5.5]undec-2-yl]ethyl}-3-fluorophenyl)-L-phenylalaninamide], the IC50 was found to be 80 nM.

Take `COC(=O)N[C@H](C(=O)Nc1cccc(F)c1CC[C@@H]1CNCC2(CCOCC2)O1)[C@@H](c1ccc(Cl)cc1)c1cc(F)cc(F)c1` [Example 97, methyl {(1S,2S)-2-(4-chlorophenyl)-2-(3,5-difluorophenyl)-1-[(2-{2-[(2R)-1,9-dioxa-4-azaspiro[5.5]undec-2-yl]ethyl}-3-fluorophenyl)carbamoyl]ethyl}carbamate]: the IC50 was 55 nM.

The compound `COC(=O)N[C@H](C(=O)Nc1cncc(F)c1CC[C@@H]1CNCC2(CCCC2)O1)C(c1ccc(F)cc1)c1ccc(F)cc1` [Example 100, methyl {(1S)-1-[bis(4-fluorophenyl)methyl]-2-[(5-fluoro-4-{2-[(7R)-6-oxa-9-azaspiro[4.5]dec-7-yl]ethyl}pyridin-3-yl)amino]-2-oxoethyl}carbamate] came in with an IC50 of 71 nM.
